pIC50: −log10 of the molar value.
Each compound was assayed against ATX (human His-tagged) (Homo sapiens (Human), UniProt Q13822) (assay: Human ATX enzyme inhibition assay (fluorescence quenching, MR121 substrate)). Conditions: MR121 substrate 1 μM, ATX 30 nM final, 30° C.
Assay type: biochemical
Protocol: Human ATX Enzyme Inhibition Assay
ATX inhibition was measured by a fluorescence quenching assay using a specifically labeled substrate analogue (MR121 substrate). To obtain this MR121 substrate, BOC and TBS protected 6-amino-hexanoic acid (R)-3-({2-[3-(2-{2-[2-(2-amino-ethoxy)-ethoxy]-ethoxy}-ethoxy)-propionylamino]-ethoxy}-hydroxy-phosphoryloxy)-2-hydroxy-propyl ester (Ferguson et al., Org Lett 2006, 8 (10), 2023) was labeled with MR121 fluorophore (CAS 185308-24-1, 1-(3-carboxypropyl)-11-ethyl-1,2,3,4,8,9,10,11-octahydro-dipyrido[3,2-b:2′,3′-i]phenoxazin-13-ium) on the free amine of the ethanolamine side and then, after deprotection, subsequently with tryptophan on the side of the aminohexanoic acid. Assay working solutions were made as follows: Assay buffer (50 mM Tris-HCl, 140 mM NaCl, 5 mM KCl, 1 mM CaCl2, 1 mM MgCl2, 0.01% Triton-X-100, pH 8.0; ATX solution: ATX (human His-tagged) stock solution (1.08 mg/mL in 20 mM bicine, pH 8.5, 0.15 M NaCl, 10% glycerol, 0.3% CHAPS, 0.02% NaN3), diluted to 1.4-2.5× final concentration in assay buffer; MR121 substrate solution: MR121 substrate stock solution (800 μM MR121 substrate in DMSO), diluted to 2-5× final concentration in assay buffer. Test compounds (10 mM stock in DMSO, 8 μL) were obtained in 384 well sample plates (Corning Costar #3655) and diluted with 8 μL DMSO. Row-wise serial dilutions were made by transferring 8 μL cpd solution to the next row up to row O. The compound and control solutions were mixed five times and 2 μL were transferred to 384 well assay plates (Corning Costar #3702). Then, 15 μL of 41.7 nM ATX solution was added (30 nM final concentration), mixed five times and then incubated for 15 minutes at 30° C. 10 μL of MR121 substrate solution was added (1 μM final concentration), mixed 30 times and then incubated for 15 minutes at 30° C.
`NS(=O)(=O)c1ccc(C(=O)N2C[C@H]3CN(C(=O)CCc4ccc(OC(F)(F)F)cc4F)C[C@H]3C2)cc1` [Example 8.07, 4-{(3aS,6aR)-5-[3-(2-fluoro-4-trifluoromethoxy-phenyl)-propionyl]-hexahydro-pyrrolo[3,4-c]pyrrole-2-carbonyl}-benzenesulfonamide] was tested, and the pIC50 was 9.00. `NS(=O)(=O)c1ccc(C(=O)N2C[C@H]3CN(C(=O)CCc4ccc(OC(F)(F)F)cc4)C[C@H]3C2)cc1` [Example 8.08, 4-{(3aS,6aR)-5-[3-(4-trifluoromethoxy-phenyl)-propionyl]-hexahydro-pyrrolo[3,4-c]pyrrole-2-carbonyl}-benzenesulfonamide] was tested, and the pIC50 was 8.82. With `NS(=O)(=O)c1ccc(C(=O)N2C[C@H]3CN(C(=O)CCc4ccc(OC(F)(F)F)cc4F)C[C@@H]3C2)cc1` [Example 8.09, 4-((3 aR,6aR)-5-(3-(2-fluoro-4-(trifluoromethoxy)phenyl)propanoyl)octahydropyrrolo[3,4-c]pyrrole-2-carbonyl)benzenesulfonamide] the pIC50 was 9.00.

From US10913745B2, “Octahydro-pyrrolo[3,4-c]-pyrrole derivatives and analogs thereof as autotaxin inhibitors” (Hoffmann-La Roche Inc., priority 2013, dated 2021)
